How the values were obtained:
Type in all cases: in vivo
Ipomoea hederacea [1] = experiment: Pre-emergence herbicidal test, IPOHE; parameters: key: A rating 0 indicates growth as untreated control; a rating 9 indicates death; settings: 0-9 scale, 21 days after spraying
Zea mays [2] = experiment: Post-emergence herbicidal test, ZEAMX; parameters: key: A rating 0 indicates growth as untreated control; a rating 9 indicates death; settings: 0-9 scale, 21 days after spraying
How it was run: (§1)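 Herbicidal effect is recorded on a linear 0-9 scale, where 0 means growth like untreated control and 9 means death, with one unit approximating 10% more effect.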

Ipomoea hederacea [3] = experiment: Post-emergence herbicidal test, IPOHE; parameters: key to herbicidal effect (0-9 scale) IPOHE / herbicidal rating IPOHE: A rating 0 indicates growth as untreated control; a rating 9 indicates death; settings: for herbicidal rating IPOHE: POST, 0-9 scale, 21 days after spraying
How it was run: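 Compounds in acetone solution were diluted with water and sprayed post-emergence onto foliage and soil at about 1000, 800, 400, 250 or 100 g/ha. Plants were kept on greenhouse benches under conventional care.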

Galium aparine = experiment: Pre-emergence herbicidal test, GALAP; parameters: key to herbicidal effect (0-9 scale) GALAP / herbicidal rating GALAP: A rating 0 indicates growth as untreated control; a rating 9 indicates death; settings: for herbicidal rating GALAP: PRE, 0-9 scale, 21 days after spraying
Setaria viridis [4] = experiment: Post-emergence herbicidal test, SETVI; parameters: key to herbicidal effect (0-9 scale) SETVI / herbicidal rating SETVI: A rating 0 indicates growth as untreated control; a rating 9 indicates death; settings: POST, 0-9 scale, 21 days after spraying
How it was run: as §1

[5] = system: representative range of plants; experiment: Herbicidal activity, pre- and post-emergence, overall; settings: both in pre- and post-emergence
Method: (§2) To evaluate their herbicidal activity, compounds according to the invention are tested using a representative range of plants:
(§3) The pre-emergence tests involve spraying a liquid formulation of the compound onto the soil in which the seeds of the plant species mentioned above has recently been sown.
The soil used in the tests is a prepared horticultural loam. The formulations used in the tests are prepared from solutions of the test compounds in acetone containing 0.4% by weight of an alkylphenol/ethylene oxide condensate available under the trade mark TRITON X-155. These acetone solutions are diluted with water and the resulting formulations applied at dosage levels corresponding to 1000 g and 250 g/ha of active material per hectare in a volume equivalent to 900 litres per hectare. In these tests untreated sown soil are used as controls.
These acetone solutions are diluted with water and the resulting formulations applied at dosage levels equivalent to about 1000, 800, 400, 250 or 100 g/ha per hectare of test compound per pot. After spraying, the plants are placed on greenhouse benches and are cared for in the usual manner, commensurate with conventional greenhouse practices.
(§4) The herbicidal effects of the test compounds are assessed visually twenty-one days after spraying the foliage and the soil and are recorded on a 0-9 scale. A rating 0 indicates growth as untreated control, a rating 9 indicates death. An increase of 1 unit on the linear scale approximates to a 10% increase in the level of effect.

[6] = system: representative range of plants; experiment: Pre-emergence herbicidal test, summary over the plants tested; settings: 100 g/ha
Method: as §2, §3
(§5) The soil used in the tests is a prepared horticultural loam. The formulations used in the tests are prepared from solutions of the test compounds in acetone containing 0.4% by weight of an alkylphenol/ethylene oxide condensate available under the trade mark TRITON X-155. […] In these tests untreated sown soil are used as controls.
as §4

Setaria viridis [7] = experiment: Pre-emergence herbicidal test, SETVI; parameters: key to herbicidal effect (0-9 scale) SETVI / herbicidal rating SETVI: A rating 0 indicates growth as untreated control; a rating 9 indicates death; settings: for herbicidal rating SETVI: PRE, 0-9 scale, 21 days after spraying
Alopecurus myosuroides = experiment: Pre-emergence herbicidal test, ALOMY; parameters: key to herbicidal effect (0-9 scale) ALOMY / herbicidal rating ALOMY: A rating 0 indicates growth as untreated control; a rating 9 indicates death; settings: PRE, 0-9 scale, 21 days after spraying
Abutilon theophrasti [8] = experiment: Pre-emergence herbicidal test, ABUTH; parameters: key to herbicidal effect (0-9 scale) ABUTH / herbicidal rating ABUTH: A rating 0 indicates growth as untreated control; a rating 9 indicates death; settings: for herbicidal rating ABUTH: PRE, 0-9 scale, 21 days after spraying
Stellaria media = experiment: Post-emergence herbicidal test, STEME; parameters: key to herbicidal effect (0-9 scale) STEME / herbicidal rating STEME: A rating 0 indicates growth as untreated control; a rating 9 indicates death; settings: for herbicidal rating STEME: POST, 0-9 scale, 21 days after spraying
How it was run: as §1

[9] = system: representative range of plants; experiment: Post-emergence herbicidal test, summary over the plants tested; settings: 100 g/ha
Method: as §2
[…] After spraying, the plants are placed on greenhouse benches and are cared for in the usual manner, commensurate with conventional greenhouse practices.
as §4

Matricaria inodora = experiment: Pre-emergence herbicidal test, MATIN; parameters: key to herbicidal effect (0-9 scale) MATIN / herbicidal rating MATIN: A rating 0 indicates growth as untreated control; a rating 9 indicates death; settings: for herbicidal rating MATIN: PRE, 0-9 scale, 21 days after spraying
Zea mays [10] = experiment: Pre-emergence herbicidal test, ZEAMX; parameters: key to herbicidal effect (0-9 scale) ZEAMX / herbicidal rating ZEAMX: A rating 0 indicates growth as untreated control; a rating 9 indicates death; settings: for herbicidal rating ZEAMX: PRE, 0-9 scale, 21 days after spraying
Glycine max = experiment: Pre-emergence herbicidal test, GLXMA; parameters: key to herbicidal effect (0-9 scale) GLXMA / herbicidal rating GLXMA: A rating 0 indicates growth as untreated control; a rating 9 indicates death; settings: for herbicidal rating GLXMA: PRE, 0-9 scale, 21 days after spraying
Method: as §2, §3, §5, §4

Abutilon theophrasti [11] = experiment: Post-emergence herbicidal test, ABUTH; parameters: key to herbicidal effect (0-9 scale) ABUTH / herbicidal rating ABUTH: A rating 0 indicates growth as untreated control; a rating 9 indicates death; settings: for herbicidal rating ABUTH: POST, 0-9 scale, 21 days after spraying
How it was run: as §1

Cn1c(C(F)(F)F)cc(=O)n(-n2ccc3c(Cl)cccc32)c1=O [Example 169, 3-(4-Chloro-indol-1-yl)-1-methyl-6-trifluoromethylpyrimidine-2,4-dione]
herbicidal rating IPOHE (Ipomoea hederacea [1]; 12.5 g/ha): 2
herbicidal rating IPOHE (Ipomoea hederacea [1]; 25 g/ha): 4
herbicidal rating IPOHE (Ipomoea hederacea [1]; 100 g/ha): 8
herbicidal rating IPOHE (Ipomoea hederacea [1]; 400 g/ha): 9
herbicidal rating ZEAMX (Zea mays [2]; 25 g/ha): 0
herbicidal rating ZEAMX (Zea mays [2]; 100 g/ha): 3
herbicidal rating ZEAMX (Zea mays [2]; 400 g/ha): 5
herbicidal rating IPOHE (Ipomoea hederacea [3]; 25 g/ha): 9
herbicidal rating IPOHE (Ipomoea hederacea [3]; 100 g/ha): 9
herbicidal rating IPOHE (Ipomoea hederacea [3]; 400 g/ha): 9
control of Ipomoea (Ipomoea hederacea [3]; post-emergence, 12.5 g/ha): excellent control
herbicidal rating GALAP (Galium aparine; 12.5 g/ha): 7
herbicidal rating GALAP (Galium aparine; 25 g/ha): 8
herbicidal rating GALAP (Galium aparine; 100 g/ha): 9
herbicidal rating GALAP (Galium aparine; 400 g/ha): 9
control of Galium (Galium aparine; pre-emergence, 25 g/ha): good control
herbicidal rating SETVI (Setaria viridis [4]; 25 g/ha): 6
herbicidal rating SETVI (Setaria viridis [4]; 100 g/ha): 9
herbicidal rating SETVI (Setaria viridis [4]; 400 g/ha): 9
herbicidal performance [5]: excellent performance
control of the weeds [6]: all of the weeds except Alopecurus were well controlled
herbicidal rating SETVI (Setaria viridis [7]; 12.5 g/ha): 8
herbicidal rating SETVI (Setaria viridis [7]; 25 g/ha): 9
herbicidal rating SETVI (Setaria viridis [7]; 100 g/ha): 9
herbicidal rating SETVI (Setaria viridis [7]; 400 g/ha): 9
control of Setaria (Setaria viridis [7]; pre-emergence, 25 g/ha): good control
herbicidal rating ALOMY (Alopecurus myosuroides; 12.5 g/ha): 2
herbicidal rating ALOMY (Alopecurus myosuroides; 25 g/ha): 5
herbicidal rating ALOMY (Alopecurus myosuroides; 100 g/ha): 7
herbicidal rating ALOMY (Alopecurus myosuroides; 400 g/ha): 9
herbicidal rating ABUTH (Abutilon theophrasti [8]; 12.5 g/ha): 5
herbicidal rating ABUTH (Abutilon theophrasti [8]; 25 g/ha): 9
herbicidal rating ABUTH (Abutilon theophrasti [8]; 100 g/ha): 9
herbicidal rating ABUTH (Abutilon theophrasti [8]; 400 g/ha): 9
control of Abutilon (Abutilon theophrasti [8]; pre-emergence, 25 g/ha): good control
herbicidal rating STEME (Stellaria media; 25 g/ha): 8
herbicidal rating STEME (Stellaria media; 100 g/ha): 9
herbicidal rating STEME (Stellaria media; 400 g/ha): 9
control of Stellaria (Stellaria media; post-emergence, 12.5 g/ha): excellent control
control of the weeds [9]: good cross spectrum control on both broadleaf weeds and grasses
herbicidal rating MATIN (Matricaria inodora; 12.5 g/ha): 8
herbicidal rating MATIN (Matricaria inodora; 25 g/ha): 8
herbicidal rating MATIN (Matricaria inodora; 100 g/ha): 9
herbicidal rating MATIN (Matricaria inodora; 400 g/ha): 9
control of Matricaria (Matricaria inodora; pre-emergence, 25 g/ha): good control
herbicidal rating ZEAMX (Zea mays [10]; 12.5 g/ha): 0
herbicidal rating ZEAMX (Zea mays [10]; 25 g/ha): 1
herbicidal rating ZEAMX (Zea mays [10]; 100 g/ha): 3
herbicidal rating ZEAMX (Zea mays [10]; 400 g/ha): 7
selectivity in maize (Zea mays [10]; pre-emergence, 25 g/ha): Surprisingly good selectivity
herbicidal rating GLXMA (Glycine max; 12.5 g/ha): 0
herbicidal rating GLXMA (Glycine max; 25 g/ha): 0
herbicidal rating GLXMA (Glycine max; 100 g/ha): 3
herbicidal rating GLXMA (Glycine max; 400 g/ha): 5
selectivity in soy beans (Glycine max; pre-emergence, 25 g/ha): Surprisingly good selectivity
herbicidal rating ABUTH (Abutilon theophrasti [11]; 25 g/ha): 9
herbicidal rating ABUTH (Abutilon theophrasti [11]; 100 g/ha): 9
herbicidal rating ABUTH (Abutilon theophrasti [11]; 400 g/ha): 9
control of Abutilon (Abutilon theophrasti [11]; post-emergence, 12.5 g/ha): excellent control
